Experimental data published in ChEMBL document CHEMBL3585345 (ACS Med Chem Lett, 2015).
Calls of active or inactive are those of the source. The calls are words filed in the database; no cut-off is given here.

Experiments:
[1] = system: HCT-116; test: Cytotoxicity against human HCT116 cells assessed as inhibition of cell proliferation by BrdU incorporation assay; type: functional
[2] = biological target: T1, Aurora kinase A (Mus musculus, UniProt P97477); test: Inhibition of recombinant mouse aurora kinase A expressed in insect Sf9 cells using biotin-GLRRASLG as substrate in presence of [gamma-33P]ATP
T1 sequence (P97477 whole entry): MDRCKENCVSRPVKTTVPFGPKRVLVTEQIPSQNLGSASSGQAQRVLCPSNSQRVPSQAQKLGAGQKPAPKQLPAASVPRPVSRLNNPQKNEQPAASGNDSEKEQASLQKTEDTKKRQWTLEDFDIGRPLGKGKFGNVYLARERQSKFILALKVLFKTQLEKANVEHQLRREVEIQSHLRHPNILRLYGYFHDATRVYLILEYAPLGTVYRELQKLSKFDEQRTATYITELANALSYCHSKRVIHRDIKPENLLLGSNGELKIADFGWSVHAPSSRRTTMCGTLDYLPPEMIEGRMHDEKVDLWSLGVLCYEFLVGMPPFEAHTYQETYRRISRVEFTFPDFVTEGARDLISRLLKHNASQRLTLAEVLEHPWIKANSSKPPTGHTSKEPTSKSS

[3] = biological target: Aurora kinase B (Homo sapiens, UniProt Q96GD4); test: Inhibition of aurora kinase B in human HCT116 cells assessed as inhibition of histone H3 phosphorylation by immunofluorescence analysis; type: cell-based, HCT-116
[4] = Cmax in nude mouse brain at 30 mg/kg, po; type: ADME, organism-based; parameters: dose 30 mg/kg, route oral
[5] = AUC (0 to 8 hrs) in nude mouse brain at 30 mg/kg, po; type: ADME, organism-based; parameters: dose 30 mg/kg, time < 8 hr, route oral
[6] = system: Plasma; test: AUC (0 to 8 hrs) in nude mouse plasma at 30 mg/kg, po; type: ADME, organism-based; parameters: dose 30 mg/kg, time < 8 hr, route oral; details: in vivo
[7] = in vivo; details: nude, mouse, brain/plasma, po, 30 mg/kg
[8] = system: Caco-2; test: Permeability across basolateral to apical side in human Caco2 cells; type: ADME, cell-based
[9] = Aqueous solubility of the compound; type: physicochemical; details: buffer
[10] = system: Caco-2; test: Permeability across apical to basolateral side in human Caco2 cells; type: ADME, cell-based
[11] = system: Rattus norvegicus; test: AUC (0 to 24 hrs) in po dosed Sprague-Dawley rat; type: ADME, organism-based; parameters: time < 24 hr, route oral; details: in vivo
[12] = system: Rattus norvegicus; test: In vivo binding affinity to GABAA receptor in po dosed Sprague-Dawley rat; type: ADME, organism-based
[13] = Cmax in po dosed Sprague-Dawley rat; type: ADME, organism-based; parameters: route oral; details: in vivo
[14] = system: Rattus norvegicus; test: Toxicity in Sprague-Dawley rat assessed as GABAA related effect at maximum tolerated dose, po administered for 7 days; type: organism-based; details: in vivo, 168 h
[15] = biological target: T2, Gamma-aminobutyric acid receptor subunit alpha-1 (Homo sapiens, UniProt P14867); test: Binding affinity to GABAA alpha-1 benzodiazepine binding site (unknown origin)
T2 sequence (P14867 whole entry): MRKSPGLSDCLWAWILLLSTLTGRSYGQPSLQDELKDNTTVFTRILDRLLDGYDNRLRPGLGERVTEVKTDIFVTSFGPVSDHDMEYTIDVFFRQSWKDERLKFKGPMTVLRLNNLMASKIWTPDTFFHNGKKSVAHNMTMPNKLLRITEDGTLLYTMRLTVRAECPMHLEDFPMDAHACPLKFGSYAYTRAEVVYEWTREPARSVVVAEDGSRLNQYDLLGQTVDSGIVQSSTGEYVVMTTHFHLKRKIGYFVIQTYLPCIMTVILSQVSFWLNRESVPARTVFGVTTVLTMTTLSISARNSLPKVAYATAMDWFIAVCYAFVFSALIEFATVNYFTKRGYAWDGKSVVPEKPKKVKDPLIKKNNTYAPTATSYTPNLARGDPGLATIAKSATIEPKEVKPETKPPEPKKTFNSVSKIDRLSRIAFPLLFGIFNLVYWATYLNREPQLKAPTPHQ

[16] = biological target: T3, Aurora kinase A (Homo sapiens, UniProt O14965); test: Inhibition of aurora kinase A autophosphorylation at T288 in human HCT116 cells by immunofluorescence analysis; type: cell-based, HCT-116
T3 sequence (O14965 whole entry): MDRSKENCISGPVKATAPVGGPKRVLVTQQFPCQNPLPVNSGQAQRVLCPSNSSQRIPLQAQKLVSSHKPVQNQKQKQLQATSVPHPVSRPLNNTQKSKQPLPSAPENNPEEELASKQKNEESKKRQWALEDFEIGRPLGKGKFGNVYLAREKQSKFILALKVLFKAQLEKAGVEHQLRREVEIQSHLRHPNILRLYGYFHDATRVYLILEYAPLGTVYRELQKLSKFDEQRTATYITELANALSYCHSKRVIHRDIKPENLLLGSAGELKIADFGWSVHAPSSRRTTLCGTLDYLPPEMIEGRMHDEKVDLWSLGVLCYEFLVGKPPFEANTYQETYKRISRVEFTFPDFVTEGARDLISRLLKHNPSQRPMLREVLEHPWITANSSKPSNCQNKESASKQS

[17] = system: Calu-6; test: Antitumor activity against human Calu6 cells xenografted in mouse assessed as tumor growth inhibition at 20 mg/kg, po bid administered for 21 days; type: functional, organism-based
[18] = system: Calu-6; test: Antitumor activity against human Calu6 cells xenografted in mouse assessed as tumor growth inhibition at 30 mg/kg, po bid administered for 21 days; type: functional, organism-based
[19] = Terminal half life in Sprague-Dawley rat at 1 mg/kg, iv; type: ADME, organism-based; details: in vivo, read-out: beta t1/2 (converted)
[20] = Protein binding in plasma (unknown origin); type: ADME, cell-free; details: read-out: PPB
[21] = system: Rattus norvegicus; test: Toxicity in Sprague-Dawley rat assessed as mucositis at maximum tolerated dose, po administered for 7 days; type: organism-based; details: in vivo, 168 h
[22] = system: Rattus norvegicus; test: Toxicity in Sprague-Dawley rat assessed as myelosuppression at maximum tolerated dose, po administered for 7 days; type: organism-based; details: in vivo, 168 h
[23] = system: Rattus norvegicus; test: Toxicity in Sprague-Dawley rat assessed as GABAA related effect administered as iv infusion measured within 5 mins; type: organism-based; details: in vivo
[24] = system: Rattus norvegicus; test: (§1) Oral bioavailability in Sprague-Dawley rat at 10 mg/kg; type: ADME, organism-based; details: in vivo
[25] = Volume of distribution at steady state in Sprague-Dawley rat at 1 mg/kg, iv; type: ADME, organism-based; details: in vivo, read-out: Vdss
[26] = biological target: T1, Aurora kinase A; test: Competitive inhibition of recombinant mouse aurora kinase A expressed in insect Sf9 cells in presence of ATP
[27] = Inhibition of human CYP450; type: ADME
[28] = Substrate activity at P-gp (unknown origin) transfected in MDCK cells; type: ADME, cell-based; details: human
[29] = Inhibition of CYP450 (unknown origin) up to 100 uM; type: ADME; details: human
[30] = as §1; type: ADME, organism-based; details: Sprague-Dawley, in vivo
[31] = system: Rattus norvegicus; test: Toxicity in Sprague-Dawley rat assessed as reversible effect on central nervous system at maximum tolerated dose, po administered for 7 days; type: organism-based; details: in vivo, 168 h
[32] = Clearance in Sprague-Dawley rat at 1 mg/kg, iv; type: ADME, organism-based; details: in vivo

Aurora kinase B, sequence (Q96GD4 whole entry): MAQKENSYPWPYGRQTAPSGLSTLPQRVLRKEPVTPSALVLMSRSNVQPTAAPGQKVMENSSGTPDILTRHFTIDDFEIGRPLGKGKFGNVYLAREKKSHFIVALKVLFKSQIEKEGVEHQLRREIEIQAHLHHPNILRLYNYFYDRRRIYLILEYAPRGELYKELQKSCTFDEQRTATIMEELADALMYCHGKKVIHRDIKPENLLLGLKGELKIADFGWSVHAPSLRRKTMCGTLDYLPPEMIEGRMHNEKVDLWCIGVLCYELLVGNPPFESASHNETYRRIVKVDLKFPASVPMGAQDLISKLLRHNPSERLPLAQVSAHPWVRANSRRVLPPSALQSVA

SMILES: O=C(O)c1ccc(Nc2ncc3c(n2)-c2ccc(Cl)cc2C(c2ccccc2F)=NC3)cc1
- GI50 [1]: 950 nM
- IC50 [2]: 33 nM
- IC50 [3]: > 10000 nM

SMILES: O=C([O-])c1ccc(Nc2ncc3c(n2)-c2ccc(Cl)cc2C(c2c(F)cccc2F)=NC3)cc1.[Na+]
- Cmax [4]: 2600 ng/mL
- AUC(0-t) at 8 h [5]: 12500 ng·h/mL

SMILES: COc1cccc(F)c1C1=NCc2cnc(Nc3ccc(C(=O)[O-])cc3)nc2-c2ccc(Cl)cc21.[Na+]
- Cmax [4]: 930 ng/mL
- AUC [6]: 54300 ng·h/mL
- Kp [7]: 0.06
- AUC(0-t) at 8 h [5]: 3500 ng·h/mL

SMILES: COc1cc(Nc2ncc3c(n2)-c2ccc(Cl)cc2C(c2c(F)cccc2OC)=NC3)ccc1C(=O)[O-].[Na+]
- Cmax [4]: 420 ng/mL
- Kp [7]: 0.03
- AUC(0-t) at 8 h [5]: 2000 ng·h/mL

SMILES: O=C([O-])c1ccc(Nc2ncc3c(n2)-c2ccc(Cl)cc2C(c2ccccc2F)=NC3)cc1.[Na+]
- permeability [8]: 64 ×10⁻⁶ cm/s
- solubility [9]: > 10000 µg/mL
- permeability [10]: 58 ×10⁻⁶ cm/s

SMILES: COc1cccc(F)c1C1=NCc2cnc(Nc3ccc(C(=O)O)cc3)nc2-c2ccc(Cl)cc21
- AUC [11]: 244000 ng·h/mL
- GI50 [1]: 130 nM
- Activity [12]: Non-toxic
- Cmax [13]: 46000 ng/mL
- Activity [14]: Non-toxic
- IC50 [15]: 150 nM
- IC50 [2]: 10 nM
- IC50 [3]: 2500 nM

SMILES: Nc1ncc2c(n1)-c1ccc(Cl)cc1C(c1ccccc1F)=NC2
- GI50 [1]: 11000 nM
- IC50 [2]: 1700 nM
- IC50 [16]: 6000 nM
- IC50 [3]: > 10000 nM

SMILES: COc1cc(Nc2ncc3c(n2)-c2ccc(Cl)cc2C(c2c(F)cccc2OC)=NC3)ccc1C(=O)O
- TGI [17]: Active

SMILES: O=C(O)c1ccc(Nc2ncc3c(n2)-c2ccc(Cl)cc2C(c2c(F)cccc2F)=NC3)cc1
- TGI [18]: Active

SMILES: COc1cc(Nc2ncc3c(n2)-c2ccc(Cl)cc2C(c2c(F)cccc2OC)=NC3)ccc1C(=O)O [ALISERTIB]
- AUC [11]: 201000 ng·h/mL
- GI50 [1]: 30 nM
- half-life [19]: 7 h
- fraction unbound [20]: < 0.03
- Activity [21]: Toxic
- Activity [22]: Toxic
- Activity [23]: Toxic
- F [24]: 124%
- permeability [8]: 47 ×10⁻⁶ cm/s
- Vd [25]: 2.21 L/kg
- Ki [26]: 0.3 nM
- Activity [12]: Non-toxic
- Cmax [13]: 48000 ng/mL
- permeability [10]: 62 ×10⁻⁶ cm/s
- Activity [14]: Non-toxic
- IC50 [15]: 490 nM
- IC50 [2]: 1 nM
- IC50 [27]: > 100000 nM
- Activity [28]: Not Active

SMILES: O=C(O)c1ccc(Nc2ncc3c(n2)-c2ccc(Cl)cc2C(c2c(F)cccc2F)=NC3)cc1 [MLN-8054]
- AUC [11]: 13800 ng·h/mL
- half-life [19]: 4.2 h
- inhibition (INH) [29]: Not Active
- fraction unbound [20]: < 0.02
- Activity [21]: Toxic
- Activity [22]: Toxic
- bioavailability [30]: 100%
- Activity [31]: Toxic
- permeability [8]: 79 ×10⁻⁶ cm/s
- Vd [25]: 1.48 L/kg
- Ki [26]: 7 nM
- clearance [32]: 20.3 mL/min/kg
- Cmax [13]: 5200 ng/mL
- permeability [10]: 54 ×10⁻⁶ cm/s
- IC50 [15]: 330 nM
- IC50 [2]: 31 nM
- Activity [28]: Not Active
